One block for each molecule: values may come before it.
Assays:
[1] = 24 h post dose
[2] = tested on: BCR-activated calcium flux in Ramos cells; assay: BCR-induced calcium flux assay in anti-IgM stimulated Ramos cells; conditions: Homo sapiens, read-out: Ramos Cell Ca Flux IC50 (nM)
[3] = tested on: human monocyte derived osteoclasts; assay: Human monocyte derived osteoclastogenesis (M-CSF/RANKL), TRAP and actin staining; type: cell-based
Source text: Further, as depicted in FIG. 18, and FIG. 19, the BTK inhibitors described herein inhibit RANKL induced Btk, PLC-g, Erk and NF-kB activation of osteoclasts derived from human monocytes and murine RAW cells.
We confirmed by immunoblotting that activation of Btk mediates osteoclastogenesis induced by M-CSF and RANKL in CD14+ OC. precursor cells. Phosphorylation of Btk and its downstream PLCγ2 was induced by M-CSF/RANKL in CD14+ monocytes from human donors and mouse RAW 264.7 cells (FIG. 20A). […] At the end of 2-week culture of M-CSF/RANKL-stimulated normal donor monocytes (donor number>4) in plastic tissue culture plates, we observed a significant reduction in multinucleated mature Osteoclast (OC) numbers (TRAP+, >3 nuclei and >50 μm per OC cell, p<0.01), as well as irregular TRAP staining pattern of multinucleated OC influenced by the BtK inhibitor, in a dose-dependent fashion (FIG. 20C-E). To further assess the effects of PCI-32765 on osteoclastogenesis, OC precursor cells from human donors were cultured on glass cover slips, followed by immunofluorescence staining for actin cytoskeleton and pit formation assay for bone resorption activity. […] Most importantly, the Btk inhibitors described herein profoundly diminished bone erosion area formed by OCs cultured on dentine slices in pit formation assays, with or without dexamethasone (FIG. 21D).

[4] = tested on: INA-6 MM cells in implanted human bone; assay: SCID-hu model of human multiple myeloma bone disease; type: in vivo, SCID-hu mice; conditions: 12 mg/kg, vs vehicle control
Source text: FIG. 22A-22F show inhibition of multiple myeloma (MM) cell growth and MM-induced bone lysis in a murine model of human MM by administration of a Btk inhibitor described herein. […] Tissue slides were stained with H&E and immunohistochemically analyzed for CD138 (MM), TRAP(OC), and ALP (OB). Original magnification, ×200 except for ALP (×400). […] Effects of Btk inhibitor treatment were also quantitated in the left (mouse L) and right (mouse R) normal mouse extremities (FIG. 22F)
Btk inhibition by the compounds described herein and suppression of MM cell growth and […] were studied in vivo in a mouse model of MM bone disease, the SCID-hu model (FIG. 22A). MM cell growth was quantitated by measuring soluble IL6R (sIL6R) secreted by INA-6 MM cells in murine blood, and mice were treated with a compound of Formula (A), (B), (C), or (D) following first detection of tumor growth. […] Histologic analysis and immunohistochemistry for CD138 and TRAP staining confirmed decreased numbers of MM cells and reduced bone resorption activity in the human bones retrieved from the mice treated with the compound, as compared with the control group (FIG. 22B).

levels twenty four hours post dose [1]: below the level of quantitation
SMILES: C=CC(=O)N1CCCC(n2nc(-c3ccc(Oc4ccccc4)cc3)c3c(N)ncnc32)C1 (stereo not drawn) [Compound 4, 1-(3-(4-amino-3-(4-phenoxyphenyl)-1H-pyrazolo[3,4-d]pyrimidin-1-yl)piperidin-1-yl)prop-2-en-1-one]

IC50 [2]: 36 nM
SMILES: CN(C)C/C=C/C(=O)N1CCCC(n2nc(-c3ccc(Oc4ccccc4)cc3)c3c(N)ncnc32)C1 (stereo not drawn) [Compound 15, (E)-1-(3-(4-amino-3-(4-phenoxyphenyl)-1H-pyrazolo[3,4-d]pyrimidin-1-yl)piperidin-1-yl)-4-(dimethylamino)but-2-en-1-one]

SMILES: C=CC(=O)N1CCC[C@@H](n2nc(-c3ccc(Oc4ccccc4)cc3)c3c(N)ncnc32)C1 [PCI-32765]
numbers of mature OC, treated versus normal OC cultures ([3]; human OC precursor cells on glass cover slips): Significantly reduced numbers of mature OC | spreading area per cell and number of nuclei per OC ([3]; human OCs on glass cover slips, p<0.01): expanded spreading area per cell | MM-induced osteolysis / bone lysis in implanted human bone ([4]; micro-CT): significantly reduced osteolysis | osteogenic activity (ALP expression, ALP+/BS) in implanted human bone ([4]; p<0.01): enhanced osteogenic activity

Reference: patent US20130178483A1, “Methods and Compositions for Inhibition of Bone Resorption” (Pharmacyclics, Inc., priority 2011, published 2013)
